{"source": "ChEMBL document CHEMBL1142585", "about": "“Two new cytotoxic linderazulenes from a deep-sea gorgonian of the genus Paramuricea” (J Nat Prod, 2005)", "key": {"[1]": {"test_system": "PANC-1", "assay": "Cytotoxicity against human PANC-1 cells by MTT assay", "format": "functional, cell-based"}, "[2]": {"test_system": "P388", "assay": "Cytotoxicity against mouse P388 cells by MTT assay", "format": "functional, cell-based"}, "[3]": {"test_system": "Candida albicans", "assay": "Antifungal activity against Candida albicans at 50 ug/mL", "format": "functional, organism-based"}}, "note": "The source made the active and inactive calls. The rule behind the calls is not given here."}
{"smiles": "COC(=O)c1ccc2c(C)cc3occ(C)c3cc1-2", "values": [{"measurement": "IC50", "setting": "[1]", "value": 18.7, "unit": "µg/mL"}, {"measurement": "IC50", "setting": "[2]", "value": 2.7, "unit": "µg/mL"}, {"measurement": "Activity", "setting": "[3]", "value": "inactive"}]}
{"smiles": "Cc1cc2occ(C)c2cc2c(C)ccc1-2", "note": "[LINDERAZULENE]", "values": [{"measurement": "IC50", "setting": "[2]", "value": 18.8, "unit": "µg/mL"}, {"measurement": "Activity", "setting": "[3]", "value": "inactive"}]}
{"smiles": "Cc1cc2occ(C)c2cc2c(C=O)ccc1-2", "values": [{"measurement": "IC50", "setting": "[2]", "value": 15.6, "unit": "µg/mL"}, {"measurement": "Activity", "setting": "[3]", "value": "inactive"}]}
